In patent publication US20070219186A1, “Pyrazolo[1,5-A]pyrimidine derivatives and methods of use thereof” (priority 2006, published 2007):
Where two headings read alike, the source gives them in different places.

Molecular target: T1, human B-Raf (Homo sapiens, UniProt P15056)
T1 construct: Flag; GST; made in house; host or cells: Sf9 insect cells (B-Raf); E. coli (MEK1-GST)
Test: B-Raf Kinase to MEK1 ELISA
Type: biochemical
Details: for inhibition at 10 µM: read-out: % Inhib./10 uM
Method in brief: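 Read-out is a DELFIA europium signal from phospho-MEK1 (Ser217/221) antibody after capture of GST-MEK1 (50 nM final) on anti-GST plates. Phosphorylation comes from Sf9-expressed Flag/GST human B-Raf (~20 ng) with ATP/MgCl2, 60 min RT, pH 7.2 MOPS.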

[1] = median, cpd concentrations from 10 μM to 30 nM in half log dilutions, read-out: Median IC50

T1 sequence (P15056 whole entry): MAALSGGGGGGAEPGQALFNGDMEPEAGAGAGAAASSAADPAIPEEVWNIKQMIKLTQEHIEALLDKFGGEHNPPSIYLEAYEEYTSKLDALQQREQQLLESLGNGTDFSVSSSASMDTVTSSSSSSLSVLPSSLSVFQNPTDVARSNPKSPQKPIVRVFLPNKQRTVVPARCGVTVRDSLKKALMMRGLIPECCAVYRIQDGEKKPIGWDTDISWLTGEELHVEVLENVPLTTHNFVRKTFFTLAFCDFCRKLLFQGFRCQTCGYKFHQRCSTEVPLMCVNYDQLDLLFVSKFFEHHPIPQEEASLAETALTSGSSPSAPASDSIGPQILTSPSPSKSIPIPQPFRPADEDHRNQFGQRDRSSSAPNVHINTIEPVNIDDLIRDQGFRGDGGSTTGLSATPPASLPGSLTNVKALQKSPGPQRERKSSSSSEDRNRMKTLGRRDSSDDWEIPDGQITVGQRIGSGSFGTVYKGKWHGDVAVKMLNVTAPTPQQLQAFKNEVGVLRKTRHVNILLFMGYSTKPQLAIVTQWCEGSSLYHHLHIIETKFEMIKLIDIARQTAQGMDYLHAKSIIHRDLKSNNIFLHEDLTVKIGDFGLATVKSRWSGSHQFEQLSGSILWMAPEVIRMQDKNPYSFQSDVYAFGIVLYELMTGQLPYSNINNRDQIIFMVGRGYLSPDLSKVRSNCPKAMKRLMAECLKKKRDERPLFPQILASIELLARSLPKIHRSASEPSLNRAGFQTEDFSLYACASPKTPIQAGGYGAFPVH

IC50 [1] [µM]	inhibition at 10 µM [%]	IC50 [µM]	Compound	inhibition at 10 µM (single point assay, 10 uM) [%]
0.281	86	–	Cn1cc(-c2cnn3c(-c4cccc(NC(=O)c5cccc(C(F)(F)F)c5)c4)ccnc23)cn1 [Example 308, N-{3-[3-(1-methyl-1H-pyrazol-4-yl)pyrazolo[1,5-a]pyrimidin-7-yl]phenyl}-3-(trifluoromethyl)benzamide]	–
> 10	78	–	O=Cc1ccc(-c2cnn3c(-c4cccc(NC(=O)c5cccc(C(F)(F)F)c5)c4)ccnc23)o1 [Example 313, N-{3-[3-(5-formyl-2-furyl)pyrazolo[1,5-a]pyrimidin-7-yl]phenyl}-3-(trifluoromethyl)benzamide]	–
–	67	3.16	Cc1cnc2c(Br)cnn2c1-c1cccc(NC(=O)c2cccc(C(F)(F)F)c2)c1 [Example 178, N-[3-(3-bromo-6-methylpyrazolo[1,5-a]pyrimidin-7-yl)phenyl]-3-(trifluoromethyl)benzamide]	–
1.6	54	–	CCOC(=O)c1cnn2c(-c3cccc(NC(=O)c4cc(C(C)(C)C)cc(C(C)(C)C)c4)c3)ccnc12 [Example 227, ethyl7-{3-[(3,5-di-tert-butylbenzoyl)amino]phenyl}pyrazolo[1,5-a]pyrimidine-3-carboxylate]	–
–	86	0.1	Nc1cccc(-c2cnn3c(-c4cccc(NC(=O)c5cccc(C(F)(F)F)c5)c4)ccnc23)c1 [Example 156, N-{3-[3-(3-aminophenyl)pyrazolo[1,5-a]pyrimidin-7-yl]phenyl}-3-(trifluoromethyl)benzamide]	–
0.541	92	–	O=C(Nc1cccc(-c2ccnc3c(-c4ccc(CN5CCCC5)o4)cnn23)c1)c1cccc(C(F)(F)F)c1 [Example 316, N-(3-{3-[5-(pyrrolidin-1-ylmethyl)-2-furyl]pyrazolo[1,5-a]pyrimidin-7-yl}phenyl)-3-(trifluoromethyl)benzamide]	–
–	77	0.578	COc1ccc(-c2cnn3c(-c4cccc(NC(=O)c5cccc(C(F)(F)F)c5)c4)ccnc23)cn1 [Example 312, N-{3-[3-(6-methoxypyridin-3-yl)pyrazolo[1,5-a]pyrimidin-7-yl]phenyl}-3-(trifluoromethyl)benzamide]	–
–	96	0.111	Nc1ccc(-c2cnn3c(-c4cccc(NC(=O)c5cccc(C(F)(F)F)c5)c4)ccnc23)cn1 [Example 278, N-{3-[3-(6-aminopyridin-3-yl)pyrazolo[1,5-a]pyrimidin-7-yl]phenyl}-3-(trifluoromethyl)benzamide]	–
–	66	0.3	CN(C)c1ccc(-c2cnn3c(-c4cccc(NC(=O)c5cccc(C(F)(F)F)c5)c4)ccnc23)cc1 [Example 157, N-(3-{3-[4-(dimethylamino)phenyl]pyrazolo[1,5-a]pyrimidin-7-yl}phenyl)-3-(trifluoromethyl)benzamide]	–
4.2	74	–	O=C(Nc1cccc(-c2ccnc3c(Br)cnn23)c1)c1ccc(F)c(C(F)(F)F)c1 [Example 163, N-[3-(3-bromopyrazolo[1,5-a]pyrimidin-7-yl)phenyl]-4-fluoro-3-(trifluoromethyl)benzamide]	–
> 10	12	–	CCOC(=O)c1cnn2c(-c3cccc(NC(=O)c4cc5ccccc5n4C)c3)ccnc12 [Example 219, ethyl 7-(3-{[(1-methyl-1H-indol-2-yl)carbonyl]amino}phenyl)pyrazolo[1,5-a]pyrimidine-3-carboxylate]	–

Second part, the molecule before the results:

Compound	IC50 [1] [µM]	inhibition at 10 µM [%]	IC50 [µM]	inhibition at 10 µM (single point assay, 10 uM) [%]
CCOC(=O)c1cnn2c(-c3cc(NC(=O)c4ccc(C)c(C(F)(F)F)c4)ccc3[N+](=O)[O-])ccnc12 [Example 105, ethyl 7-(5-{[4-methyl-3-(trifluoromethyl)benzoyl]amino}-2-nitrophenyl)pyrazolo[1,5-a]pyrimidine-3-carboxylate]	> 10	37	–	–
CCOC(=O)c1cnn2c(-c3cccc(NC(=O)Nc4cc(C(F)(F)F)ccc4Cl)c3)ccnc12 [Example 37, ethyl 7-{3-[({[2-chloro-5-(trifluoromethyl)phenyl]amino}carbonyl)amino]phenyl}pyrazolo[1,5-a]pyrimidine-3-carboxylate]	6.82	76	–	–
CCOC(=O)c1cnn2c(-c3ccc(OCc4ccccc4)c(NC(=O)c4ccc(C)c(C(F)(F)F)c4)c3)ccnc12 [Example 108, ethyl 7-(4-(benzyloxy)-3-{[4-methyl-3-(trifluoromethyl)benzoyl]amino}phenyl)pyrazolo[1,5-a]pyrimidine-3-carboxylate]	> 10	20	–	–
CCOC(=O)c1cnn2c(-c3cccc(NC(=O)c4cccc(Cl)c4)c3)ccnc12 [Example 70, Ethyl 7-{3-[(3-chlorobenzoyl)amino]phenyl}pyrazolo[1,5-a]pyrimidine-3-carboxylate]	> 10	0	–	–
O=C(Nc1cccc(-c2ccnc3cc(-c4ccc(Cl)cc4)nn23)c1)c1cccc(C(F)(F)F)c1 [Example 115, N-{3-[2-(4-chlorophenyl)pyrazolo[1,5-a]pyrimidin-7-yl]phenyl}-3-(trifluoromethyl)benzamide]	> 10	24	–	–
O=C(Nc1cccc(-c2ccnc3cc(-c4cccc(C(F)(F)F)c4)nn23)c1)c1cccc(C(F)(F)F)c1 [Example 137, 3-(trifluoromethyl)-N-(3-{2-[3-(trifluoromethyl)phenyl]pyrazolo[1,5-a]pyrimidin-7-yl}phenyl)benzamide]	> 10	–	–	–
CCOC(=O)c1cnn2c(-c3cccc(NC(=O)c4ccc(Cl)c(C(F)(F)F)c4)c3)ccnc12 [Example 103, ethyl 7-(3-{[4-chloro-3-(trifluoromethyl)benzoyl]amino}phenyl)pyrazolo[1,5-a]pyrimidine-3-carboxylate]	2.49	59	–	–
CCOC(=O)c1cnn2c(-c3cccc(NC(=O)Cc4cccc(C)c4)c3)ccnc12 [Example 98, ethyl 7-(3-{[(3-methylphenyl)acetyl]amino}phenyl)pyrazolo[1,5-a]pyrimidine-3-carboxylate]	> 10	15	–	–
CCOC(=O)c1cnn2c(-c3cccc(NC(=O)Cc4ccc(OC)c(C)c4)c3)ccnc12 [Example 101, ethyl 7-(3-{[(4-methoxy-3-methylphenyl)acetyl]amino}phenyl)pyrazolo[1,5-a]pyrimidine-3-carboxylate]	> 10	0	–	–
O=C(Nc1cccc(-c2ccnc3cc(-c4ccncc4)nn23)c1)c1ccccc1 [Example 144, N-[3-(2-pyridin-4-ylpyrazolo[1,5-a]pyrimidin-7-yl)phenyl]benzamide]	> 10	15	–	–
CCOC(=O)c1cnn2c(-c3cccc(NC(=O)Cc4cccc(Cl)c4)c3)ccnc12 [Example 94, ethyl 7-(3-{[(3-chlorophenyl)acetyl]amino}phenyl)pyrazolo[1,5-a]pyrimidine-3-carboxylate]	> 10	14	–	–
CCOC(=O)c1cnn2c(-c3cccc(NC(=O)Nc4cccc(C(F)(F)F)c4)c3)ccnc12 [Example 33, ethyl 7-{3-[({[3-(trifluoromethyl)phenyl]amino}carbonyl)amino]phenyl}pyrazolo[1,5-a]pyrimidine-3-carboxylate]	0.68	80	–	–
COCCNC(=O)c1cnn2c(-c3cccc(NC(=O)c4cccc(C(F)(F)F)c4)c3)ccnc12 [Example 45, N-(2-methoxyethyl)-7-(3-{[3-(trifluoromethyl)benzoyl]amino}phenyl)pyrazolo[1,5-a]pyrimidine-3-carboxamide]	–	56	–	–
N#Cc1cnn2c(-c3cccc(NC(=O)c4cccc(C(F)(F)F)c4)c3)ccnc12 [Example 63, N-[3-(3-cyanopyrazolo[1,5-a]pyrimidin-7-yl)phenyl]-3-(trifluoromethyl)benzamide]	> 10	–	–	14
CCOC(=O)c1cnn2c(-c3cccc(NC(=O)Nc4ccc(C(F)(F)F)cc4)c3)ccnc12 [Example 35, ethyl 7-{3-[({[4-(trifluoromethyl)phenyl]amino}carbonyl)amino]phenyl}pyrazolo[1,5-a]pyrimidine-3-carboxylate]	3.1	71	–	–
CCOC(=O)c1cnn2c(-c3cccc(NC(=O)c4cc(C(F)(F)F)ccc4Cl)c3)ccnc12 [Example 27, ethyl 7-(3-{[2-chloro-5-(trifluoromethyl)benzoyl]amino}phenyl)pyrazolo[1,5-a]pyrimidine-3-carboxylate]	> 10	12	–	–
CCOC(=O)c1cnn2c(-c3cccc(NC(=O)Nc4ccc(C#N)c(C(F)(F)F)c4)c3)ccnc12 [Example 78, ethyl 7-{3-[({[4-cyano-3-(trifluoromethyl)phenyl]amino}carbonyl)amino]phenyl}pyrazolo[1,5-a]pyrimidine-3-carboxylate]	–	–	0.57	85
CCOC(=O)c1cnn2c(-c3cccc(NC(=O)c4ccc(Cl)cc4)c3)ccnc12 [Example 6, ethyl 7-{3-[(4-chlorobenzoyl)amino]phenyl}pyrazolo[1,5-a]pyrimidine-3-carboxylate]	> 20	38	–	–
O=C(Nc1cccc(-c2ccnc3cc(-c4ccncc4)nn23)c1)Nc1ccc(F)c(C(F)(F)F)c1 [Example 131, N-[4-fluoro-3-(trifluoromethyl)phenyl]-N′-[3-(2-pyridin-4-ylpyrazolo[1,5-a]pyrimidin-7-yl)phenyl]urea]	0.03	98	–	–
CN1CCN(CCCNC(=O)c2cnn3c(-c4cccc(NC(=O)c5cccc(C(F)(F)F)c5)c4)ccnc23)CC1 [Example 50, N-[3-(4-methylpiperazin-1-yl)propyl]-7-(3-{[3-(trifluoromethyl)benzoyl]amino}phenyl)pyrazolo[1,5-a]pyrimidine-3-carboxamide]	8	42	–	–
